Assay type in all cases: functional, cell-based
Test [1] in a line: Cytotoxicity against rat ASK cells assessed as reduction in cell viability by SRB assay. A general note: The SRB assay estimates cell density from bound dye.
The test system of the next test is MCF7. In words: Cytotoxicity against human MCF7 cells assessed as reduction in cell viability by SRB assay.
Another test has as its system A549. The test can be described thus: Cytotoxicity against human A549 cells assessed as reduction in cell viability by SRB assay.
Another test deals with KB. In words: Cytotoxicity against human KB cells assessed as reduction in cell viability by SRB assay.
In the next test the test system is P388. The test can be described thus: Cytotoxicity against mouse P388 cells assessed as reduction in cell viability by SRB assay.
For a further test, the system named is HT-29. In words: Cytotoxicity against human HT-29 cells assessed as reduction in cell viability by SRB assay.

Three compounds from ChEMBL document CHEMBL4190295, “One-pot three steps cascade synthesis of novel isoandrographolide analogues and their cytotoxic activity” (Eur J Med Chem, 2017) can be followed below.

As to `CC(=O)O[C@@H]1CC[C@]2(C)[C@H](CC[C@]3(CNc4ccccc4)O[C@H](C4=CCOC4=O)C[C@H]32)[C@]1(C)COC(c1ccccc1)(c1ccccc1)c1ccccc1`, the IC50 in test [1] was 29.1 µM; in the test on MCF7 it was above 50 µM; with A549, above 50 µM; in the test with KB, above 50 µM; in the test on P388, above 50 µM; in the test on HT-29, above 50 µM.
As to `C=C1CC[C@@H]2[C@](C)(CO)[C@H](O)CC[C@@]2(C)[C@@H]1C/C=C1/C(=O)OC[C@H]1O` [ANDROGRAPHOLIDE], the IC50 came out at 16.2 µM in test [1]; 15.4 µM in the test on MCF7; 27.9 µM in the test on A549; 27.4 µM in the test with KB; 2.25 µM in the test on P388; 9.34 µM in the test on HT-29.
As to `Cc1c2ccncc2c(C)c2c1[nH]c1ccccc12` [ELLIPTECINE], the IC50 in test [1] stood at 2.17 µM; in the test on MCF7 it was 1.53 µM; in the test with A549 it was 1.2 µM; in the test with KB it was 1.87 µM; with P388, 1.34 µM; with HT-29, 2.06 µM.

The IC50 is the midpoint of a concentration-inhibition curve.
